Read-outs that look alike come from different tables or passages of the source.
How the values were obtained:
[1] = target: T1, HCV NS5B RdRp genotype 1b (Hepatitis C virus genotype 1b, UniProt Q9WMX2); assay: Standard HCV NS5B RdRp enzyme assay; assay type: biochemical; conditions: HCV NS5B RdRp genotype 1b, read-out: IC50
T1 construct: The protein was expressed with an 18 amino acid C-terminal truncation to enhance the solubility; made in house; host or cells: E. coli BL21(DE3), pET21a vector
In short: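 C-terminally truncated (18 aa) genotype 1b NS5B from E. coli, 28 nM, with 6 nM polyA template, 180 nM biotinylated oligo-dT12 primer and 3H-UTP (0.29 μM total UTP). Hepes pH 7.5 buffer with 2% DMSO; 60 min at 30° C. EDTA stop, SPA read-out; IC50 from seven concentrations by four-parameter fit.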

[2] = tested on: HUH-7 cells, constitutively expressing the HCV replicon; assay: HCV Replicon Luciferase Reporter Assay (384-well plates); assay type: cell-based; conditions: Hepatitis C virus, untitled table after Table 1b, *EC50 determined using 384 well plate method
Procedure: The HCV replicon luciferase assay was developed to monitor the inhibitory effects of compounds described in the disclosure on HCV viral replication. Utilization of a replicon luciferase reporter assay was first described by Krieger et al (Krieger N, Lohmann V, and Bartenschlager R, J. Virol. 75(10):4614-4624 (2001)). HUH-7 cells, constitutively expressing the HCV replicon, were grown in Dulbecco's Modified Eagle Media (DMEM) (Gibco-BRL) containing 10% Fetal calf serum (FCS) (Sigma) and 1 mg/ml G418 (Gibco-BRL). Compounds were serially diluted 3 folds in DMSO for a twenty-point titration and subsequently transferred to sterile 384-well tissue-culture treated plates (Corning cat #3571). The plates were then seeded with 50 μl of cells at a density of 3.0×10^3 cells/well in DMEM containing 4% FCS (final DMSO concentration at 0.5%). After 3 days incubation at 37° C., cells were analyzed for Renilla Luciferase activity using the EnduRen as substrate (Promega cat #E6485). The EnduRen substrate was diluted in DMEM and then added to the plates to a final concentration of 7.5 μM. The plates were incubated for 2 hrs at 37° C. and then read immediately for 30 seconds with Viewlux Imager (PerkinElmer) using a luminescence program. To assess cytotoxicity of compounds, CC50 values were generated by multiplexing the EnduRen-containing plates with Cell Titer-Blue (Promega, cat #G8082). 3 μl of Cell-Titer Blue was added to each well and incubated for 8 hrs at 37° C. The fluorescence signal from each well was read, with an excitation wavelength at 525/10 nm and an emission wavelength of 598/10 nm, using the Viewlux Imager.

[3] = tested on: HCV; conditions: cited from earlier work
[4] = tested on: HCV replicon cells; assay: HCV replicon FRET / luciferase assay (96-well plates); assay type: cell-based; conditions: Hepatitis C virus, HCV replicon, read-out: EC50
In short: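 Replicon cells (with or without Renilla luciferase reporter) incubated with titrated compounds at 37 °C; Alamar blue read for cytotoxicity first. NS3 protease activity read kinetically with 20 μM EDANS/DABCYL FRET peptide in lysis reagent plus 150 mM NaCl (ex 340/em 490), or by Dual-Glo luciferase. EC50 = 50% signal reduction after protease-inhibitor background subtraction.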

T1 sequence (Q9WMX2 2420-2992): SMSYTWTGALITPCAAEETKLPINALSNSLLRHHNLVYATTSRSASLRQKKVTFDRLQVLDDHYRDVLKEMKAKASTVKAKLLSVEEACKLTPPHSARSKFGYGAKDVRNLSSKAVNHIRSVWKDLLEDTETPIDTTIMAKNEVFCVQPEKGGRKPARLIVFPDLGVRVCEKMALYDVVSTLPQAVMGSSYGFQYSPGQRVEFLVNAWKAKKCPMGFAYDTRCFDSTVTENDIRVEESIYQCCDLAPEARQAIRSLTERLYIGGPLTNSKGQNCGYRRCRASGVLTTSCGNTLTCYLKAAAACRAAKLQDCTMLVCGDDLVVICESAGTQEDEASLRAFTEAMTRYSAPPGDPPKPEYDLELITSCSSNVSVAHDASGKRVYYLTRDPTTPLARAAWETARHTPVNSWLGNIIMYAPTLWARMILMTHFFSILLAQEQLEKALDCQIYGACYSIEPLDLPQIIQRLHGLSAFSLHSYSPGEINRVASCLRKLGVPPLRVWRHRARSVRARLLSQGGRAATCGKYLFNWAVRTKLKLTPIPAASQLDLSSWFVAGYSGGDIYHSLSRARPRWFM

| SMILES | IC50 ([1]; untitled table after Table 1b) [nM] | EC50 [2] [nM] | IC50 ([1]; Table 1b) [nM] | EC50 ([4]; Table 1b) [nM] | other results |
| --- | --- | --- | --- | --- | --- |
| CNC(=O)c1c(-c2ccc(F)cc2)oc2ccc(-c3cc(C(=O)NC4(c5ccccc5)CC4)ccc3C)cc12 [drawing 601] | 20 | 0.786 |  |  |  |
| CNC(=O)c1c(-c2ccc(F)cc2)oc2ccc(-c3cc(C(=O)NC4(c5ncccn5)CC4)ccc3C)cc12 [drawing 599] | < 20 | 0.304 |  |  |  |
| CNC(=O)c1c(-c2ccc(F)cc2)oc2ccc(-c3cc(C(=O)NC4(c5ccncc5)CC4)ccc3C)cc12 [drawing 603] | 3.95 | 0.83 |  |  |  |
| CNC(=O)c1c(-c2ccc(F)cc2)oc2ccc(-c3cc(C(=O)NC4(c5ccccn5)CC4)cc(F)c3C)cc12 [drawing 600] | 10 | 0.425 |  |  |  |
| CNC(=O)c1c(-c2ccc(F)cc2)oc2ccc(-c3cc(C(=O)NC4(c5nc(C)no5)CC4)ccc3C)cc12 [drawing 602] | 7.2 | 0.805 |  |  |  |
| CNC(=O)c1c(-c2ccc(F)cc2)oc2cc(N(CCO)S(C)(=O)=O)c(C3CC3)cc12 [HCV-796] |  |  |  |  | hepatic toxicity ([3]; patients, extended dosing of the combination regimens): hepatic toxicity observed; HCV RNA levels in patients ([3]; single agent or combined with interferon and ribavirin): reduce HCV RNA levels in patients |
| CNC(=O)c1c(-c2ccc(F)cc2)oc2ccc(-c3cc(C(=O)NC4(c5nc(C)no5)CC4)c(OC)cc3C)cc12 [drawing 598] | 20 | 1.6 |  |  |  |
| CNC(=O)c1c(-c2ccc(F)cc2)oc2ccc(-c3cc(C(=O)NC4(c5ncccn5)CC4)ccc3C)c(F)c12 [drawing 623] |  | 5.68 |  |  |  |
| CNC(=O)c1c(-c2ccc(F)cc2)oc2ccc(-c3cc(C(=O)NCC(C)C)ccc3OCCO)cc12 |  |  | < 250 | < 250 |  |
| CNC(=O)c1c(-c2ccc(F)cc2)oc2ccc(-c3cc(C(=O)NC4(c5nnn[nH]5)CC4)ccc3C)cc12 |  |  | < 250 | 1000 to 10000 |  |
| CNC(=O)c1c(-c2ccc(F)cc2)oc2ccc(-c3cccc(C(=O)NCCc4ccccc4)c3)cc12 |  |  |  |  | IC50 ([1]; Table 1a): > 10000 nM; EC50 ([4]; Table 1a): > 10000 nM |
| CNC(=O)c1c(-c2ccc(F)cc2)oc2ccc(-c3cncc(C(=O)NC(C)(C)C)c3)cc12 |  |  | < 250 | < 250 |  |
| CNC(=O)c1c(-c2ccc(F)cc2)oc2ccc(-c3cc(C(=O)NC4(c5coc(C)n5)CC4)ccc3C)cc12 |  |  | < 250 | < 250 |  |
